Assay results published in patent US20240344145A1, “PHARMACOGENOMICS SCORE TO MAKE DECISIONS ON THERAPY AUGMENTATION IN AML” (University of Florida Research Foundation, Incorporated, priority 2021, published 2024).

Test system: ara-C metabolic pathway genes
Assay: Association of ara-C pathway SNP genotypes with MRD1, EFS and OS in AML02 (logistic regression and Cox models; also within LDAC and HDAC arms)
Parameters: species or system human
Settings: within arm of AML02
Description: Genomic DNA from patients enrolled in the multi-site St. Jude AML02 trial was genotyped for 155 SNPs in 16 genes of relevance to ara-C pharmacology using sequenom iPlex platform that uses MALDI-TOF based chemistry at University of Minnesota, Biomedical Genomics Center. SNPs were selected based on previously reported studies. For SNPs lacking literature on genetic variation, SNPs were selected to capture LD blocks (European and African ancestry) on a gene. Of 155 SNPs, 1 SNP was excluded due to low call rate (<90%), 47 SNPs were excluded due to minimum allele frequency of less than 5%, 11 SNPs were excluded due to high LD (r^2>0.9) with other SNPs; two SNPs were excluded because of deviation from Hardy-Weinberg equilibrium. Genotype for the COG-AAML0531 cohort for the selected SNPs was obtained using sequenom platform or TaqMan genotyping assays, and for a few SNPs was extracted from the data available on Illumina 2.5 Omni array. Genotype calls from multiple platforms were confirmed across multiple samples randomly collected from the cohort.
SNP genotype groups in three different modes of inheritance (additive, dominant, and recessive) were tested for association with MRD1 using logistic regression models. Odds ratio (OR) and 95% confidence interval (CI) were calculated for each test. SNPs with association P-value<0.05 were considered significant. Cox-proportional hazard models were used to evaluate association of genotype groups with EFS or OS. Hazard ratio (HR) and 95% CI were calculated for each test. p-value<0.05 was considered statistically significant. Given initial risk group assignments are well-established prognostic factors associated with outcome, outcome association analysis of SNPs with and without adjusting for risk group was also performed to identify SNPs that are associated with outcome independent of risk group.
SNPs with p<0.15 in risk-adjusted univariate evaluation with clinical endpoints (MRD1, EFS, and OS) were tested for all possible combinations with a maximum of three SNPs per model in multivariable logistic regression models for association with MRD1 and Cox-proportional hazard models for association with EFS and OS. Analysis for up to 3 SNP combinations was restricted due to computational challenges as increasing the maximum number of SNPs per model drastically increases the number of models as 1000 permutations were run for each model. Models were ordered according to their Bayesian Information Criterion (BIC) and weight in favor of each model. One thousand permutation tests were performed for each model to determine statistical significance. The six unique SNPs from the most significant models for EFS and MRD1 were included in the development of the ACS10 score as described in the results section.
The multicenter AML02 clinical trial randomly assigned subjects to receive low dose ara-C (LDAC: 100 mg/m^2; n=91 patients) or high dose ara-C(HDAC: 3 g/m^2; n=75 patients) in combination with daunorubicin and etoposide as the first course of chemotherapy as described above in patient cohort section. Thus, the association of SNPs with outcome within each arm separately was also explored (Table 5).

[1] = rs4917384 (NT5C2, WT C, VAR T), MOI D
[2] = rs4980345 (SLC28A1, WT G, VAR A), MOI A
[3] = rs6552622 (DCTD, WT C, VAR G), MOI D
[4] = rs6742272 (RRM2, WT C, VAR G), MOI A
[5] = rs6834938 (DCTD, WT C, VAR T), MOI R
[6] = rs6946062 (NT5C3, WT T, VAR C), MOI D
[7] = rs7533657 (CTPS1, WT C, VAR T), MOI R
[8] = rs7543016 (CMPK1, WT C, VAR G), MOI R
[9] = rs7776847 (NT5C3, WT G, VAR A), MOI A
[10] = rs7874528 (SLC28A3, WT G, VAR T), MOI D
[11] = rs10252880 (NT5C3, WT G, VAR C), MOI A
[12] = rs10767827 (RRM1, WT G, VAR T), MOI D
[13] = rs10786736 (NT5C2, WT G, VAR C), MOI D
[14] = rs10916819 (CDA, WT A, VAR G), MOI D
[15] = rs11140525 (SLC28A3, WT G, VAR A), MOI A
[16] = rs11191558 (NT5C2, WT G, VAR A), MOI D
[17] = rs11737887 (DCTD, WT T, VAR C), MOI A
[18] = rs12554292 (SLC28A3, WT C, VAR T), MOI D
[19] = rs12806698 (RRM1, WT C, VAR A), MOI D
[20] = rs17103168 (CMPK1, WT A, VAR G), MOI D

SMILES: Nc1ccn([C@@H]2O[C@H](CO)[C@@H](O)[C@@H]2O)c(=O)n1 [LDAC, cytarabine]
- EFS HR (95% CI) [1]: 1.04 (0.76-1.44)
- MRD1 OR (95% CI) [1]: 0.78 (0.51-1.19)
- OS HR (95% CI) [1]: 0.87 (0.58-1.29)
- EFS HR (95% CI) [2]: 1.81 (1-3.26)
- MRD1 OR (95% CI) [2]: 1.08 (0.45-2.58)
- OS HR (95% CI) [2]: 1.84 (0.95-3.55)
- EFS HR (95% CI) [3]: 1.05 (0.7-1.59)
- MRD1 OR (95% CI) [3]: 0.86 (0.49-1.49)
- OS HR (95% CI) [3]: 1.22 (0.77-1.94)
- EFS HR (95% CI) [4]: 1.5 (0.95-2.36)
- MRD1 OR (95% CI) [4]: 0.49 (0.25-0.96)
- OS HR (95% CI) [4]: 1.43 (0.83-2.48)
- EFS HR (95% CI) [5]: 1.4 (0.83-2.35)
- MRD1 OR (95% CI) [5]: 1.92 (0.82-4.48)
- OS HR (95% CI) [5]: 1.75 (1.02-3)
- EFS HR (95% CI) [6]: 0.75 (0.54-1.04)
- MRD1 OR (95% CI) [6]: 0.94 (0.61-1.46)
- OS HR (95% CI) [6]: 0.58 (0.39-0.87)
- EFS HR (95% CI) [7]: 1.12 (0.62-2.02)
- MRD1 OR (95% CI) [7]: 0.9 (0.36-2.27)
- OS HR (95% CI) [7]: 1.05 (0.51-2.16)
- EFS HR (95% CI) [8]: 0.85 (0.55-1.32)
- MRD1 OR (95% CI) [8]: 2.01 (1.13-3.58)
- OS HR (95% CI) [8]: 0.67 (0.37-1.23)
- EFS HR (95% CI) [9]: 1.15 (0.64-2.09)
- MRD1 OR (95% CI) [9]: 0.92 (0.42-2)
- OS HR (95% CI) [9]: 1.91 (1.01-3.62)
- EFS HR (95% CI) [10]: 0.97 (0.66-1.44)
- MRD1 OR (95% CI) [10]: 1.93 (1.12-3.32)
- OS HR (95% CI) [10]: 0.89 (0.54-1.45)
- EFS HR (95% CI) [11]: 1.21 (0.74-1.98)
- MRD1 OR (95% CI) [11]: 0.97 (0.51-1.82)
- OS HR (95% CI) [11]: 1.98 (1.13-3.44)
- EFS HR (95% CI) [12]: 1.09 (0.76-1.57)
- MRD1 OR (95% CI) [12]: 0.98 (0.6-1.61)
- OS HR (95% CI) [12]: 0.97 (0.61-1.53)
- EFS HR (95% CI) [13]: 1.45 (1.03-2.03)
- MRD1 OR (95% CI) [13]: 1.1 (0.66-1.83)
- OS HR (95% CI) [13]: 1.37 (0.9-2.08)
- EFS HR (95% CI) [14]: 1.77 (1.14-2.75)
- MRD1 OR (95% CI) [14]: 1.75 (1.08-2.83)
- OS HR (95% CI) [14]: 2.05 (1.12-3.74)
- EFS HR (95% CI) [15]: 0.98 (0.63-1.54)
- MRD1 OR (95% CI) [15]: 1.44 (0.81-2.58)
- OS HR (95% CI) [15]: 1.16 (0.68-1.97)
- EFS HR (95% CI) [16]: 1.49 (1.05-2.1)
- MRD1 OR (95% CI) [16]: 0.96 (0.56-1.64)
- OS HR (95% CI) [16]: 1.32 (0.85-2.05)
- EFS HR (95% CI) [17]: 1.39 (0.73-2.66)
- MRD1 OR (95% CI) [17]: 0.95 (0.4-2.25)
- OS HR (95% CI) [17]: 1.76 (0.8-3.86)
- EFS HR (95% CI) [18]: 0.71 (0.42-1.2)
- MRD1 OR (95% CI) [18]: 1.26 (0.72-2.21)
- OS HR (95% CI) [18]: 0.78 (0.43-1.42)
- EFS HR (95% CI) [19]: 0.98 (0.69-1.39)
- MRD1 OR (95% CI) [19]: 1.14 (0.72-1.8)
- OS HR (95% CI) [19]: 1.19 (0.79-1.79)
- EFS HR (95% CI) [20]: 0.96 (0.69-1.32)
- MRD1 OR (95% CI) [20]: 0.55 (0.35-0.87)
- OS HR (95% CI) [20]: 1.03 (0.69-1.52)
